Source: ChEMBL document CHEMBL1136427, “Unique spirocyclopiperazinium salt I: synthesis and structure-activity relationship of spirocyclopiperazinium salts as analgesics” (2003)

How the values were obtained:
Format in all cases: functional
Mus sp. [1] = assay: Sedative activity was evaluated in mice after s.c. administration of 20 mg/kg.; conditions: for inhibition in vivo at 20 mg/kg: Mus sp., sc; for Inhibition: 20 mg/kg
Mus sp. [2] = assay: Analgesic activity was evaluated in mice after s.c. administration of 20 mg/kg.; conditions: for inhibition in vivo at 20 mg/kg: Mus sp., sc; for Inhibition: 20 mg/kg
Mus sp. [3] = assay: Analgesic activity was evaluated in mice after s.c. administration of 10 mg/kg.; conditions: sc
Mus sp. [4] = assay: Sedative activity was evaluated in mice after s.c. administration of 10 mg/kg.; conditions: sc

Compound | inhibition in vivo at 20 mg/kg (Mus sp. [1]) [%] | inhibition in vivo at 20 mg/kg (Mus sp. [2]) [%] | inhibition in vivo at 10 mg/kg (Mus sp. [3]) [%] | Inhibition (Mus sp. [1]) [%] | Inhibition (Mus sp. [2]) [%] | inhibition in vivo at 10 mg/kg (Mus sp. [4]) [%]
O=[N+]([O-])c1cccc(/C=C/CN2CC[N+]3(CCCC3)CC2)c1 | 12 | 32 |  |  |  | 
C(=C\c1ccccc1)/CN1CC[N+]2(CCCC2)CC1 | 33 | 0 |  |  |  | 
CCN1CC[N+]2(CCCC2)CC1 | 0 | 0 |  |  |  | 
O=C(CCN1CC[N+]2(CCCC2)CC1)c1cccc([N+](=O)[O-])c1 | 0 | 59 |  |  |  | 
OCCN1CC[N+]2(CCCC2)CC1 | 0 | 10 |  |  |  | 
Clc1ccc(/C=C/CN2CC[N+]3(CCCC3)CC2)cc1 | 12 | 19 |  |  |  | 
O=C(CCN1CC[N+]2(CCCC2)CC1)c1ccc(O)cc1 | 85 | 100 | 77 |  |  | 
Clc1cccc(/C=C/CN2CC[N+]3(CCCC3)CC2)c1 | 51 | 42 |  |  |  | 
O=C(CCN1CC[N+]2(CCCC2)CC1)c1ccsc1 | 3 | 12 |  |  |  | 
C=C(C)CN1CC[N+]2(CCCC2)CC1 | 0 | 0 |  |  |  | 
O=C(CCN1CC[N+]2(CCCC2)CC1)c1cccc(O)c1 | 13 | 14 |  |  |  | 
C1CC[N+]2(C1)CCN(CCC1OCCO1)CC2 | 25 | 36 |  |  |  | 
OC(CCl)CN1CC[N+]2(CCCC2)CC1.[Br-] (stereo in doubt; 3) |  |  |  | 57 | 64 | 
O=C1CCC(=O)N1CCCN1CC[N+]2(CCCC2)CC1 | 10 | 20 |  |  |  | 
OC(CCl)CN1CC[N+]2(CCCC2)CC1.[Br-] (stereo in doubt; 7a) |  |  |  | 0 | 0 | 
O=C(CCN1CC[N+]2(CCCC2)CC1)c1ccc([N+](=O)[O-])cc1 | 35 | 12 |  |  |  | 
O=C(CCN1CC[N+]2(CCCC2)CC1)c1ccoc1 | 0 | 15 |  |  |  | 
Clc1ccccc1/C=C/CN1CC[N+]2(CCCC2)CC1 | 59 | 27 |  |  |  | 
c1ccc(OCCCCN2CC[N+]3(CCCC3)CC2)cc1 | 4 | 9 |  |  |  | 
C=CCN1CC[N+]2(CCCC2)CC1 | 0 | 100 | 45 |  |  | 0
O=[N+]([O-])c1ccc(/C=C/CN2CC[N+]3(CCCC3)CC2)cc1 | 10 | 24 |  |  |  | 
Cc1ccc(C(=O)CCN2CC[N+]3(CCCC3)CC2)cc1 | 14 | 25 |  |  |  | 
O=C(CCN1CC[N+]2(CCCC2)CC1)c1ccccc1 | 11 | 25 |  |  |  | 
